Laboratory results: article PMC10454728, “A Comparative Study on the Lysosomal Cation Channel TMEM175 Using Automated Whole-Cell Patch-Clamp, Lysosomal Patch-Clamp, and Solid Supported Membrane-Based Electrophysiology: Functional Characterization and High-Throughput Screening Assay Development” (International Journal of Molecular Sciences, 2023)

Tested on: control HEK293 UT cells
Assay: Whole-cell APC off-target effects on control cells
Assay type: cell-based, human
Settings: 50 µM
Description: Figure 7 Whole-cell APC recordings on TMEM175: (A) Schematic representation of assay conditions in the Cs^+ flux assay. The ions known to permeate through TMEM175 in the external and internal solutions are indicated; (B) Voltage protocol and time points for the read-out of inward and outward currents; (C) The compound application protocol consists of the recording of the TMEM175 baseline current. […] Success rates were determined based on the QC criteria provided in the Methods section. […] We determined average values, AVGpos and AVGneg, and standard deviations, SDpos and SDneg, of the recorded currents. […] Datapoints were normalized to the TMEM175 baseline current before compound addition and then averaged across at least N = 5 cells. Error bars represent the SEM obtained from automated data analysis using DataControl384. […] The compound effects on control cells were between +10% and -40% compared to the control baseline current. […]. […] Therefore, off-target compound effects seem to be negligible in the APC assay.

## [Cl-].[Cl-].[Zn+2] [Zn, ZnCl2]
  Decrease of baseline current of control cells: 30–40%
